Values quoted from earlier work in paper PMC12144996 (Acta Pharmaceutica Sinica. B, 2025).

Test system: SARS-CoV-2 variants of concern (VOCs)
Conditions: cited from earlier work

In the case of `CC(C)C(=O)OC[C@H]1O[C@@](C#N)(c2ccc3c(N)ncnn23)[C@H](O)[C@@H]1O` [ATV006], the “Antiviral activity against SARS-CoV-2 variants of concern” value is given as “potent antiviral activity”.
